Laboratory results: article PMC10218007, “Potential Clinically Relevant Effects of Sialylation on Human Serum AAG-Drug Interactions Assessed by Isothermal Titration Calorimetry: Insight into Pharmacoglycomics?” (International Journal of Molecular Sciences, 2023)
Where a name gives a salt, the structure may show the parent alone.

Legend:
[1] = cited from earlier work; for pKa: ref (5) lidocaine and diltiazem, (6) clindamycin, (7) warfarin
[2] = ref 46 lidocaine, 47 diltiazem, 48 clindamycin, 49 warfarin, cited from earlier work; for Cmax: usual therapeutic peak plasma level
[3] = target: Native human AAG (AAG + s) (Homo sapiens, UniProt P02763); experiment: ITC titration of native AAG (AAG + s) with drugs; type: binding; conditions: 310 K
Native human AAG (AAG + s), sequence (P02763 19-201): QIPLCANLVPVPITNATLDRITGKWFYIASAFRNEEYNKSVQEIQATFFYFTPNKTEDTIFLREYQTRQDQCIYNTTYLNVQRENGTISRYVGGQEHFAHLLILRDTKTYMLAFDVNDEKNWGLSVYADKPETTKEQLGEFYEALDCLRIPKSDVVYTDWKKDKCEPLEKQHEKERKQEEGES
Experimental: (§1) All chemicals were used without further purification. Immobilized SialEXO® (derived from Akkermansia muciniphilla and expressed in E. Coli) was obtained from Smart Enzymes™ Genovis (Lund, Sweden), and HEPES buffer was obtained from VWR International (Leuven, Belgium). All other reagents were of analytical grade or better. All solutions were prepared immediately before the experiments in order to minimize contamination and/or impair the stability of solutions. The solutions for microcalorimetric titrations were prepared in 25 mM HEPES at pH 7.40 containing 150 mM NaCl (Kemika, Zagreb, Croatia), using doubly distilled water and 5 M NaOH (Kemika, Zagreb, Croatia) for adjusting the pH value. AAG and drug solutions were prepared by dissolving the appropriate amount of solid in the given solvent.
The ITC titrations were performed on a MicroCal PEAQ–ITC calorimeter (Malvern Panalytical Ltd., Malvern, UK). The solutions were thoroughly degassed beforehand, under vacuum to avoid any formation of bubbles that might be present in the sample cell. All microcalorimetric measurements were performed at 37 °C. The volume of the sample cell was approximately 200 μ L and the volume of the burette (syringe) was 42 μ L. Each titration was performed in duplicate or triplicate. Blank experiments were performed to estimate corrections for the dilution heat.
AAG solution (100 – 200 μ M) was loaded into the sample cell using a calibrated syringe (1 mL Hamilton) and titrated with 1 – 2 mM drug solutions. The sample cell was continuously stirred at 700 rpm. Differential power (DP) is arbitrarily applied to each titration. The interval between successive injections was 200 s, which is long enough for the signal to return to its baseline and to ensure equilibrium after each addition. Double distilled water was present in the reference cell during all experiments. To correct for the thermal effect, control titrations were performed for drug solution in buffer under the same conditions as the AAG–drug titrations and dilution heat was subtracted from the AAG–drug titration data.
(§2) All ITC data were analyzed with MicroCal PEAQ-ITC Analysis Software 1.30 using the One Set Sites Fitting Model. […] All p values were calculated using the t-test() function in Microsoft Excel (Microsoft Corporation, Redmond, WA, USA).

[4] = target: Desialylated human AAG (AAG − s) (Homo sapiens, UniProt P02763); experiment: ITC titration of desialylated AAG (AAG − s) with drugs; type: binding; conditions: 310 K
Desialylated human AAG (AAG − s), sequence (P02763 19-201): as above
Experimental: as §1
The ITC titrations were performed on a MicroCal PEAQ–ITC calorimeter (Malvern Panalytical Ltd., Malvern, UK). The solutions were thoroughly degassed beforehand, under vacuum to avoid any formation of bubbles that might be present in the sample cell. All microcalorimetric measurements were performed at 37 °C. […]
as §2

AAG + s or AAG − s = conditions: calculated; for Decrease of free drug concentration, AAG − s vs AAG + s, in the presence of HSA: with 0.64 mM HSA, depending on the conditions
Excerpt: AAG is an acute-phase protein with variable concentration in plasma and this consequently affects the free drug concentration. Hyperquad simulation and speciation software (HySS 4.0.31) was used to calculate the fraction of free vs. bound drug by solving the mass balance equations using the measured binding affinities. […] The plasma concentrations of the drug vary over time depending on the dosing regimen, and steady–state concentrations were used in the model.
In addition to AAG, human serum albumin (HSA) also plays a critical role in drug binding due to its high plasma concentration. Therefore, to obtain more realistic estimates, the free drug concentration was calculated taking into account the available data on the binding of the studied drugs to HSA.

AAG+s = conditions: log Ka = log (1/KD), KD in M; ref (2) lidocaine, (3) warfarin, (4) clindamycin; cited from earlier work

Compound	pKa [1]	Cmax [2] [µM]	N (number of drug binding sites), AAG + s [3]	Δr S°, AAG + s [3] [J K^−1 mol^−1]	N (number of drug binding sites), AAG − s [4]	Decrease of free drug concentration, AAG − s vs AAG + s, in the presence of HSA (AAG + s or AAG − s)	Reference AAG+s log KA (AAG+s)	Decrease of free plasma concentration with AAG − s vs AAG + s (AAG + s or AAG − s; AAG only, no HSA)	Ctrough ([2]; usual therapeutic trough plasma level) [µM]	Fraction present in protonated form ([1]; at the measured pH (7.40))
CC(=O)CC(c1ccccc1)c1c(O)c2ccccc2oc1=O (stereo not shown) [Warfarin, Warfarin sodium salt]	4.99	9.08	0.654 ± 0.117	−191± 5.42	0.795 ± 0.0290	10% to 40	5.34			
COc1ccc([C@@H]2Sc3ccccc3N(CCN(C)C)C(=O)[C@@H]2OC(C)=O)cc1 [Diltiazem, diltiazem hydrochloride]	8.03	0.44	0.804 ± 0.238	7.80 ± 1.74	0.868 ± 0.0290			20–30%		
CCN(CC)CC(=O)Nc1c(C)cccc1C [Lidocaine, lidocaine]						10% to 40			6.40	
clindamycin phosphate										about 30%
